Assay results as given in article PMC4573335 (Biochemistry, 2015).

Biological target: T1, hALAS2 (human erythroid-specific 5-aminolevulinate synthase) (Homo sapiens, UniProt P22557)
T1 sequence (P22557 80-587): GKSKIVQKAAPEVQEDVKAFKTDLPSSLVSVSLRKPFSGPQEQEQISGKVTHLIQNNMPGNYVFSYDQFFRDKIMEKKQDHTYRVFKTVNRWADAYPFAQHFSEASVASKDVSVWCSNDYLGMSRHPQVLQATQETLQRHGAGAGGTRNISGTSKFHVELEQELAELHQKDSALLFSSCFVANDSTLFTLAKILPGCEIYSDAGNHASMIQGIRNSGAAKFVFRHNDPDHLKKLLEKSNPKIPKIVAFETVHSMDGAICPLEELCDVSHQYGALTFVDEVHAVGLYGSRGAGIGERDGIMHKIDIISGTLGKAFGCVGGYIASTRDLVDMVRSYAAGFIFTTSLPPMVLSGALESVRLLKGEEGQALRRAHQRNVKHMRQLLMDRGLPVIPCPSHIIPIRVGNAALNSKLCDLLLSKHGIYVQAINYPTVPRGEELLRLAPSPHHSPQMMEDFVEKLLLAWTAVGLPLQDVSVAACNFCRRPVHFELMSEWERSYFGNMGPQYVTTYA
Assay: absorption spectroscopy, A420/A330 ratio
Assay type: binding
Conditions: PLP holoenzyme

NCC(=O)O [glycine]
absorption spectroscopy, A420/A330 ratio (PLP-glycine aldimine): In all cases, the A420/A330 ratio was increased upon reaction with glycine
